{"source": "patent US9663536B2", "about": "“Inhibitors of human immunodeficiency virus replication” (priority 2013, dated 2017)", "key": {"[1]": {"conditions": "rcm bond, 20-membered ring, Hoveyda-Grubbs II (10 mol%), DCE, 70.0 °C"}, "[2]": {"conditions": "from C=CCCc1ccccc1Cc1cnc(-c2cc3nc(C)c([C@H](OC(C)(C)C)C(=O)OCC)c(N4CCC(C)(OCC=C)CC4)n3n2)s1, rcm bond, Hoveyda-Grubbs II (7 mol%), DCE, 3.67 mM, 70.0 °C, 2.0 h"}, "[3]": {"test_system": "recombinant NL-Rluc virus", "test": "Inhibition of HIV replication (NL-Rluc virus in MT-2 cells, luciferase readout)", "format": "cell-based", "conditions": "Human immunodeficiency virus 1, MT2, 120 h"}}, "note": "Read-outs that look alike come from different tables or passages of the source.", "data": [{"smiles": "COC(=O)[C@@H](OC(C)(C)C)c1c(C)nc2cc3nn2c1N1CCC(C)(CC1)OC/C=C/COc1ccccc1Cc1cnn-3c1", "values": [{"measurement": "ring closure, isolated yield", "setting": "[1]; from C=CCOc1ccccc1Cc1cnn(-c2cc3nc(C)c([C@H](OC(C)(C)C)C(=O)OC)c(N4CCC(C)(OCC=C)CC4)n3n2)c1, 1.2 mM, 3.0 h", "value": 74, "unit": "%"}]}, {"smiles": "COC(=O)Cc1c(C)nc2cc3nn2c1N1CCC(C)(CC/C=C/COc2ccccc2Cn2cc-3cn2)CC1", "values": [{"measurement": "ring closure, isolated yield", "setting": "[1]; from C=CCCC1(C)CCN(c2c(CC(=O)OC)c(C)nc3cc(-c4cnn(Cc5ccccc5OCC=C)c4)nn23)CC1, 5.02 mM, 1.0 h", "value": 63, "unit": "%"}]}, {"smiles": "CCOC(=O)[C@@H](OC(C)(C)C)c1c(C)nc2cc3nn2c1N1CCC(C)(CC1)OCC=CCCc1ccccc1Cc1cnc-3s1", "values": [{"measurement": "ring closure, yield after HPLC", "setting": "[2]; 19-membered ring", "value": 8.65, "unit": "%"}, {"measurement": "ring closure, yield after HPLC", "setting": "[2]; 20-membered ring", "value": 19.7, "unit": "%"}]}, {"smiles": "CCOC(=O)[C@@H](OC(C)(C)C)c1c(C)nc2cc3nn2c1N1CCC(C)(CC1)OCC=CCOc1ccccc1Cc1cnc-3s1", "values": [{"measurement": "ring closure, isolated yield", "setting": "[1]; from C=CCOc1ccccc1Cc1cnc(-c2cc3nc(C)c([C@H](OC(C)(C)C)C(=O)OCC)c(N4CCC(C)(OCC=C)CC4)n3n2)s1, 1.64 mM, 2.0 h", "value": 76, "unit": "%"}]}, {"smiles": "Cc1nc2cc3nn2c(c1[C@H](OC(C)(C)C)C(=O)O)N1CCC(C)(CCCCCCOc2ccccc2Cc2cnn-3c2)CC1", "note": "[Example 36, (2S)-2-(tert-Butoxy)-2-{4,28-dimethyl-21-oxa-1,5,7,8,10,11-hexaazahexacyclo[26.2.2.1^6,9.1^10,13.0^2,7.0^15,20]tetratriaconta-2,4,6(34),8,11,13(33),15(20),16,18-nonaen-3-yl}acetic acid]", "values": [{"measurement": "EC50", "setting": "[3]", "value": 14, "unit": "nM"}]}, {"smiles": "Cc1nc2cc3nn2c(c1[C@H](OC(C)(C)C)C(=O)O)N1CCC(C)(CC/C=C\\COc2cccc(c2)Cc2cnn-3c2)CC1", "note": "[Example 38]", "values": [{"measurement": "EC50", "setting": "[3]", "value": 22, "unit": "nM"}]}]}
